What was measured:
Assay in all cases: relative viability (nuclei count vs DMSO), 5 days (fraction); higher = more cells survive
ALW-II-49-7 + Navitoclax = compound: Cc1ccc(C(=O)Nc2cccc(C(F)(F)F)c2)cc1Nc1cncc(C(N)=O)c1 [ALW-II-49-7] + CC1(C)CCC(c2ccc(Cl)cc2)=C(CN2CCN(c3ccc(C(=O)NS(=O)(=O)c4ccc(N[C@H](CCN5CCOCC5)CSc5ccccc5)c(S(=O)(=O)C(F)(F)F)c4)cc3)CC2)C1 [Navitoclax] (partner 0.5 µM)
In short: (§1)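 Cells from lung cancer lines were seeded into 1536-well plates and, one day later, dosed by pin tool. Treatments were either a single drug or a fixed dose of an anchor drug with five library-drug doses (not always all listed) in √10 steps. After 5 days, nuclei were stained in a one-step fixation (final 0.05% Triton X-100, 1% formaldehyde, 1 ug/ml Hoechst) and counted on 4× images, and relative viability is the treated-to-vehicle nuclei ratio, as the median of duplicate plates.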

ALW-II-49-7 + Alpelisib = compound: Cc1ccc(C(=O)Nc2cccc(C(F)(F)F)c2)cc1Nc1cncc(C(N)=O)c1 [ALW-II-49-7] + Cc1nc(NC(=O)N2CCC[C@H]2C(N)=O)sc1-c1ccnc(C(C)(C)C(F)(F)F)c1 [Alpelisib] (partner 2 µM)
In short: as §1

Dasatinib + Luminespib = compound: Cc1nc(Nc2ncc(C(=O)Nc3c(C)cccc3Cl)s2)cc(N2CCN(CCO)CC2)n1 [Dasatinib] + CCNC(=O)c1noc(-c2cc(C(C)C)c(O)cc2O)c1-c1ccc(CN2CCOCC2)cc1 [Luminespib] (partner 0.01 µM)
In short: as §1

Dasatinib + Vorinostat = compound: Cc1nc(Nc2ncc(C(=O)Nc3c(C)cccc3Cl)s2)cc(N2CCN(CCO)CC2)n1 [Dasatinib] + O=C(CCCCCCC(=O)Nc1ccccc1)NO [Vorinostat] (partner 1 µM)
In short: as §1

Cell Line	relative viability (ALW-II-49-7 + Navitoclax; first compound 0.08 µM)	relative viability (ALW-II-49-7 + Navitoclax; first compound 0.253 µM)	relative viability (ALW-II-49-7 + Navitoclax; first compound 0.8 µM)	relative viability (ALW-II-49-7 + Navitoclax; first compound 2.53 µM)	relative viability (ALW-II-49-7 + Navitoclax; first compound 8 µM)	relative viability (ALW-II-49-7 + Alpelisib; first compound 0.08 µM)	relative viability (ALW-II-49-7 + Alpelisib; first compound 0.253 µM)	relative viability (ALW-II-49-7 + Alpelisib; first compound 0.8 µM)	relative viability (ALW-II-49-7 + Alpelisib; first compound 2.53 µM)	relative viability (ALW-II-49-7 + Alpelisib; first compound 8 µM)	relative viability (Dasatinib + Luminespib; first compound 0.005 µM)	relative viability (Dasatinib + Luminespib; first compound 0.01581 µM)	relative viability (Dasatinib + Luminespib; first compound 0.05 µM)	relative viability (Dasatinib + Luminespib; first compound 0.1581 µM)	relative viability (Dasatinib + Luminespib; first compound 0.5 µM)	relative viability (Dasatinib + Vorinostat; first compound 0.005 µM)	relative viability (Dasatinib + Vorinostat; first compound 0.01581 µM)	relative viability (Dasatinib + Vorinostat; first compound 0.05 µM)	relative viability (Dasatinib + Vorinostat; first compound 0.1581 µM)	relative viability (Dasatinib + Vorinostat; first compound 0.5 µM)
NCI-H441	0.591	0.61	0.673	0.572	0.745	0.854	0.771	0.768	0.48	0.591	0.372	0.307	0.225	0.196	0.193	0.778	0.651	0.887	0.813	0.581
NCI-H2126	0.86	0.934	0.855	0.877	0.862	0.713	0.723	0.726	0.763	0.738	0.837	0.792	0.835	0.55	0.375	0.796	0.597	0.755	0.521	0.312
RERF-LC-KJ	0.876	1.27	0.938	1.05	0.866	0.785	0.567	0.754	0.745	0.882	1.3	1.05	1.06	0.982	0.993	0.667	0.602	0.585	0.491	0.416
NCI-H1666	0.879	1.03	1.03	0.978	1	1.05	1.07	0.853	0.951	0.868	0.992	1.05	1.06	0.88	0.459	1.2	1.06	1.23	1.07	0.761
